Source: PubChem BioAssay (NCI)
Several values for one entry are separate records, joined by “and”; a condition that tells them apart may be missing. Identical values can stand only once.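 96-well plates; 48 h exposure; 5 concentrations. Endpoints by linear interpolation between flanking doses. Not reached: highest tested concentration assigned. GI50: concentration for 50% inhibition of growth. Definition used: TGI = concentration required for complete inhibition of growth.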

Tests used:
Assay in all cases: NCI anticancer screen, dose series, 48 h
786-0 renal = tested on: 786-0 renal
A498 renal = tested on: A498 renal
CAKI-1 renal = tested on: CAKI-1 renal
COLO 205 colon = tested on: COLO 205 colon
DLD-1 colon = tested on: DLD-1 colon
IGROV1 ovarian = tested on: IGROV1 ovarian
M19-MEL melanoma = tested on: M19-MEL melanoma
SF-268 CNS = tested on: SF-268 CNS
SNB-75 CNS = tested on: SNB-75 CNS
UACC-257 melanoma = tested on: UACC-257 melanoma

Question: For `O=C(CCc1nnc2s/c(=C\c3ccc4c(c3)OCO4)c(=O)n12)Nc1cc(Cl)ccc1Cl`, which TGI (786-0 renal) is on record?
Answer: > 100 µM

Question: And the TGI (A498 renal)?
Answer: > 100 µM

Question: And the TGI (CAKI-1 renal)?
Answer: > 100 µM

Question: What about the TGI (COLO 205 colon) of the same compound?
Answer: > 100 µM

Question: And the TGI (DLD-1 colon)?
Answer: > 100 µM

Question: What about the TGI (IGROV1 ovarian) of the same compound?
Answer: > 100 µM

Question: What about the TGI (M19-MEL melanoma) of the same compound?
Answer: > 100 µM

Question: And the TGI (SF-268 CNS)?
Answer: > 100 µM

Question: And the TGI (SNB-75 CNS)?
Answer: > 100 µM

Question: What about the TGI (UACC-257 melanoma) of the same compound?
Answer: > 100 µM

Question: With `O=C(Nc1ccc(Cl)c(Cl)c1)C(=O)Nn1c(=S)[nH]c2ccccc2c1=O` as the compound, how does the TGI (786-0 renal) read?
Answer: > 100 µM

Question: What about the TGI (A498 renal) of the same compound?
Answer: > 100 µM

Question: What about the TGI (CAKI-1 renal) of the same compound?
Answer: > 100 µM

Question: And the TGI (COLO 205 colon)?
Answer: > 100 µM

Question: And the TGI (DLD-1 colon)?
Answer: > 100 µM

Question: What about the TGI (IGROV1 ovarian) of the same compound?
Answer: > 100 µM

Question: And the TGI (M19-MEL melanoma)?
Answer: > 100 µM

Question: What about the TGI (SF-268 CNS) of the same compound?
Answer: > 100 µM

Question: What about the TGI (SNB-75 CNS) of the same compound?
Answer: > 100 µM

Question: What about the TGI (UACC-257 melanoma) of the same compound?
Answer: > 100 µM

Question: With `CN(C)c1ccc(/C=C/C(=O)c2ccccc2)cc1Br` as the compound, how does the TGI (786-0 renal) read?
Answer: 31.8 µM

Question: What about the TGI (A498 renal) of the same compound?
Answer: > 100 µM

Question: And the TGI (CAKI-1 renal)?
Answer: 32.9 µM

Question: What about the TGI (COLO 205 colon) of the same compound?
Answer: 34.5 µM

Question: What about the TGI (DLD-1 colon) of the same compound?
Answer: 35.6 µM

Question: And the TGI (IGROV1 ovarian)?
Answer: 48.5 µM

Question: And the TGI (M19-MEL melanoma)?
Answer: 37.1 µM

Question: What about the TGI (SF-268 CNS) of the same compound?
Answer: 49.3 µM

Question: And the TGI (SNB-75 CNS)?
Answer: 45.7 µM

Question: What about the TGI (UACC-257 melanoma) of the same compound?
Answer: 52.6 µM

Question: `C[N+](C)(C)CCC(=O)N1C/C(=C\c2ccccc2)C(=O)/C(=C/c2ccccc2)C1` was tested. Which TGI (786-0 renal) did it give?
Answer: 5.46 µM

Question: What about the TGI (A498 renal) of the same compound?
Answer: 35.3 µM

Question: And the TGI (CAKI-1 renal)?
Answer: 18.2 µM

Question: What about the TGI (COLO 205 colon) of the same compound?
Answer: 13.4 µM

Question: And the TGI (DLD-1 colon)?
Answer: 5.78 µM

Question: What about the TGI (IGROV1 ovarian) of the same compound?
Answer: 13.4 µM

Question: What about the TGI (M19-MEL melanoma) of the same compound?
Answer: 15.5 µM

Question: What about the TGI (SF-268 CNS) of the same compound?
Answer: 13 µM

Question: What about the TGI (SNB-75 CNS) of the same compound?
Answer: 24.3 µM

Question: What about the TGI (UACC-257 melanoma) of the same compound?
Answer: 28.2 µM

Question: How did the TGI (786-0 renal) turn out when `COc1ccc2nc3cc(Cl)ccc3c(NCCC(=O)OCC(O)C(O)C(O[C@H](C)C(=O)NC(C)C(=O)NC(CCC(N)=O)C(=O)OCc3ccccc3)C(C=O)NC(C)=O)c2c1` (some centres undefined) was run?
Answer: 31.9 µM

Question: What about the TGI (A498 renal) of the same compound?
Answer: 37.7 µM

Question: And the TGI (CAKI-1 renal)?
Answer: 40.9 µM

Question: And the TGI (COLO 205 colon)?
Answer: 32.6 µM

Question: What about the TGI (DLD-1 colon) of the same compound?
Answer: 33.6 µM

Question: What about the TGI (IGROV1 ovarian) of the same compound?
Answer: 30.2 µM

Question: What about the TGI (M19-MEL melanoma) of the same compound?
Answer: 34.4 µM

Question: And the TGI (SF-268 CNS)?
Answer: 32.8 µM

Question: And the TGI (SNB-75 CNS)?
Answer: 31.7 µM

Question: What about the TGI (UACC-257 melanoma) of the same compound?
Answer: > 100 µM

Question: Which results are given for `COC(=O)CSc1ccccc1`?
Answer: TGI (786-0 renal): 30.1 µM; TGI (A498 renal): > 100 µM; TGI (CAKI-1 renal): > 100 µM; TGI (COLO 205 colon): > 100 µM; TGI (DLD-1 colon): > 100 µM; TGI (IGROV1 ovarian): > 100 µM; TGI (M19-MEL melanoma): > 100 µM; TGI (SF-268 CNS): > 100 µM; TGI (SNB-75 CNS): > 100 µM; TGI (UACC-257 melanoma): > 100 µM

Question: For `COC(=O)CCC(=O)CC(=O)C(=O)Nc1ccc(F)cc1`, which TGI (786-0 renal) is on record?
Answer: > 100 µM

Question: And the TGI (A498 renal)?
Answer: > 100 µM

Question: What about the TGI (CAKI-1 renal) of the same compound?
Answer: > 100 µM

Question: What about the TGI (COLO 205 colon) of the same compound?
Answer: > 100 µM

Question: What about the TGI (DLD-1 colon) of the same compound?
Answer: > 100 µM

Question: What about the TGI (IGROV1 ovarian) of the same compound?
Answer: > 100 µM

Question: And the TGI (M19-MEL melanoma)?
Answer: > 100 µM

Question: And the TGI (SF-268 CNS)?
Answer: > 100 µM

Question: What about the TGI (SNB-75 CNS) of the same compound?
Answer: > 100 µM

Question: What about the TGI (UACC-257 melanoma) of the same compound?
Answer: > 100 µM

Question: For `CNc1nnnn1C1OC(CO)C(O)C1O` (centres undefined), which TGI (786-0 renal) is on record?
Answer: > 100 µM

Question: What about the TGI (A498 renal) of the same compound?
Answer: > 100 µM

Question: And the TGI (CAKI-1 renal)?
Answer: > 100 µM

Question: And the TGI (COLO 205 colon)?
Answer: > 100 µM

Question: And the TGI (DLD-1 colon)?
Answer: > 100 µM

Question: And the TGI (IGROV1 ovarian)?
Answer: > 100 µM

Question: What about the TGI (M19-MEL melanoma) of the same compound?
Answer: > 100 µM

Question: What about the TGI (SF-268 CNS) of the same compound?
Answer: > 100 µM

Question: And the TGI (SNB-75 CNS)?
Answer: > 100 µM

Question: And the TGI (UACC-257 melanoma)?
Answer: > 100 µM

Question: With `COc1ccc(CN2C(=O)C(Cc3cc(OC)c(OC)c(C)c3OC)N(C(=O)OC(C)C)C(=O)/C2=C/c2cc(OC)c(OC)c(C)c2OC)cc1` (centres undefined) as the compound, how does the TGI (786-0 renal) read?
Answer: > 100 µM

Question: And the TGI (A498 renal)?
Answer: > 100 µM

Question: And the TGI (CAKI-1 renal)?
Answer: > 100 µM

Question: What about the TGI (COLO 205 colon) of the same compound?
Answer: > 100 µM

Question: What about the TGI (DLD-1 colon) of the same compound?
Answer: > 100 µM

Question: What about the TGI (IGROV1 ovarian) of the same compound?
Answer: > 100 µM

Question: What about the TGI (M19-MEL melanoma) of the same compound?
Answer: > 100 µM

Question: And the TGI (SF-268 CNS)?
Answer: > 100 µM

Question: What about the TGI (SNB-75 CNS) of the same compound?
Answer: > 100 µM

Question: And the TGI (UACC-257 melanoma)?
Answer: > 100 µM

Question: What does the source list for `Cn1c(=O)nc2n(-c3ccc(F)cc3)c3ccccc3nc-2c1=O`?
Answer: TGI (786-0 renal): > 100 µM; TGI (A498 renal): 93.4 µM; TGI (CAKI-1 renal): 73.3 µM; TGI (COLO 205 colon): 22.1 µM; TGI (DLD-1 colon): 62.1 µM; TGI (IGROV1 ovarian): 56.5 µM; TGI (M19-MEL melanoma): 10.6 µM; TGI (SF-268 CNS): > 100 µM; TGI (SNB-75 CNS): 91.6 µM; TGI (UACC-257 melanoma): 28.5 µM

Question: Which results are given for `NC(=O)c1nnn(Cc2cc(Cl)c(C(=O)c3ccc(Cl)cc3)c(Cl)c2)c1N`?
Answer: GI50 (786-0 renal): > 9.09 µM; TGI (786-0 renal): > 9.09 µM and 43 µM; GI50 (A498 renal): > 9.09 µM; TGI (A498 renal): > 9.09 µM and 27.2 µM; TGI (CAKI-1 renal): 25.5 µM; GI50 (COLO 205 colon): > 9.09 µM; TGI (COLO 205 colon): > 9.09 µM and 48 µM; GI50 (DLD-1 colon): 12.7 µM; TGI (DLD-1 colon): > 9.09 µM and 30.8 µM; GI50 (IGROV1 ovarian): > 9.09 µM; TGI (IGROV1 ovarian): > 9.09 µM and 44.2 µM; GI50 (M19-MEL melanoma): 14.1 µM; TGI (M19-MEL melanoma): > 9.09 µM and 27.4 µM; GI50 (SF-268 CNS): > 9.09 µM; TGI (SF-268 CNS): > 9.09 µM and 29 µM; GI50 (SNB-75 CNS): > 9.09 µM; TGI (SNB-75 CNS): > 9.09 µM and 48 µM; GI50 (UACC-257 melanoma): 6.96 µM; TGI (UACC-257 melanoma): > 9.09 µM and 33.7 µM
